This is an account of results in patent US20240246918A1, “COMPOUNDS AND COMPOSITIONS AS EIF4E INHIBITORS AND THE USES THEREOF” (Ribometrix, Inc., priority 2022, published 2024).

pIC50: −log10 of the molar value.

Assay [1] has as its target T1, human eIF4E protein (Homo sapiens, UniProt P06730).
T1 construct: purchased Novus NBP-45314
In words: Biochemical competitive binding assay (TR-FRET competition, EDA-m7GDP-ATTO-647N probe). The note with it: read-out: hEIF4E TR-FRET IC50. The essentials:
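His-tagged human eIF4E (4 nM) was preincubated with Eu-anti-His antibody (2.5 nM) and added to compound (11-point, 4-fold dilutions) for 15 min. Then 5 nM EDA-m7GDP-ATTO-647N was added for 15 min, in HEPES pH 7.5, 100 mM KCl. The 665/620 TR-FRET ratio was normalized to controls, and IC50 was taken from 4-parameter fits.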
On the technique in general: In TR-FRET formats the signal depends on donor and acceptor labels being close together.

Assay [2] concerns COLO 205 colorectal tumor cells. In words: Tumor cell viability inhibition assay (CellTiter-Glo 2.0, 72 hours). The note with it: COLO 205 cell viability. In kind it is cell-based. The essentials:
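COLO 205 cells (1500/well, RPMI-1640 + 10% FBS) exposed for 72 h to an 11-point, 4-fold dilution series; cellular ATP read by CellTiter-Glo 2.0 luminescence. Data normalized to DMSO and maximum-inhibition controls; IC50 from 4-parameter curve fit.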

T1 sequence (P06730 whole entry): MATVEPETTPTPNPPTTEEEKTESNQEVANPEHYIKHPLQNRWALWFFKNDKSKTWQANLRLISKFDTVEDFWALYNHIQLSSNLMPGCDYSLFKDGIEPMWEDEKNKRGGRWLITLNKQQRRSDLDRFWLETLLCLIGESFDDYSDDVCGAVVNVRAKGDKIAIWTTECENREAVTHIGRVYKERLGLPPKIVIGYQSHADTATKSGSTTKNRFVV

The pIC50 is −log10 of the IC50, conventionally taken in molar units. On to `Cc1cc(-c2cc(Cl)ccc2OCCn2c(C)nc3c(c2=O)C[C@H](N2CCC[C@H](c4cnn(C)c4)C2)CC3)c2scc(C(=O)O)c2n1` (single isomer, unassigned) [Compound 485], for which the pIC50 was greater than 7.00 in assay [1] and greater than 5.30 in assay [2] (Homo sapiens, COLO 205, 72 h).

Turning to `Cc1cc(-c2cc(Cl)ccc2OCCn2c(C)nc3c(c2=O)C[C@H](N2CCC(c4cn(C)cn4)CC2)CC3)c2scc(C(=O)O)c2n1` (single isomer, unassigned) [Compound 486], the pIC50 is greater than 7.00 in assay [1] and less than 4.70 in assay [2] (Homo sapiens, COLO 205, 72 h).

`Cc1cc(-c2cc(Cl)ccc2OCCn2c(C)nc3c(c2=O)C[C@@H](N2CCC(c4cn(C)cn4)CC2)CC3)c2scc(C(=O)O)c2n1` (single isomer, unassigned) [Compound 487]: the pIC50 in assay [1] was greater than 7.00; in assay [2] (Homo sapiens, COLO 205, 72 h), less than 4.70.

Consider `Cc1cc(-c2cc(Cl)ccc2OCCn2c(C)nc3c(c2=O)C[C@H](N2CCC(c4noc5ccc(F)cc45)CC2)CC3)c2scc(C(=O)O)c2n1` (single isomer, unassigned) [Compound 488], for which the pIC50 in assay [1] is greater than 7.00; in assay [2] (Homo sapiens, COLO 205, 72 h), greater than 5.30.

For `Cc1cc(-c2cc(Cl)ccc2OCCn2c(C)nc3c(c2=O)C[C@H](N2CCC4(CC2)CC(F)(F)CO4)CC3)c2scc(C(=O)O)c2n1` (single isomer, unassigned) [Compound 489], the pIC50 was greater than 7.00 in assay [1] and greater than 5.30 in assay [2] (Homo sapiens, COLO 205, 72 h).

Regarding `Cc1cc(-c2cc(Cl)ccc2OCCn2c(C)nc3c(c2=O)C[C@@H](N2CCC4(CC2)CC(F)(F)CO4)CC3)c2scc(C(=O)O)c2n1` (single isomer, unassigned) [Compound 490], the pIC50 in assay [1] is greater than 7.00; in assay [2] (Homo sapiens, COLO 205, 72 h), greater than 5.30.

As to `COC1CCN(C2CCc3nc(C)n(CC#Cc4ccc(Cl)cc4-c4ccnc5c(C(=O)NS(C)(=O)=O)csc45)c(=O)c3C2)CC1` (single isomer, unassigned) [Compound 491], the pIC50 in assay [1] is greater than 7.00; in assay [2] it was greater than 5.30.

Regarding `Cc1cc(-c2cc(Cl)ccc2OCCn2c(C)nc3c(c2=O)CC(N2CCC(CC(F)(F)F)CC2)CC3(C)C)c2scc(C(=O)O)c2n1` (single isomer, unassigned) [Compound 492], the pIC50 was greater than 7.00 in assay [1] and greater than 5.30 in assay [2] (Homo sapiens, COLO 205, 72 h).

Regarding `Cc1cc(-c2cc(Cl)ccc2OCCn2c(C)nc3c(c2=O)C[C@@H](N(C)C24CC5CC(CC(C5)C2)C4)CC3)c2scc(C(=O)O)c2n1` (single isomer, unassigned) [Compound 493], the pIC50 is greater than 7.00 in assay [1] and greater than 5.30 in assay [2] (Homo sapiens, COLO 205, 72 h).

As for `Cc1cc(-c2cc(Cl)ccc2OCCn2c(C)nc3c(c2=O)C[C@H](N2CC4CCC(C2)C4OC(F)(F)F)CC3)c2scc(C(=O)O)c2n1` (single isomer, unassigned) [Compound 494], the pIC50 in assay [1] was greater than 7.00; in assay [2] (Homo sapiens, COLO 205, 72 h), greater than 5.30.

With `Cc1cc(-c2cc(Cl)ccc2OCCn2c(C)nc3c(c2=O)C[C@@H](N2CC4CCC(C2)C4OC(F)(F)F)CC3)c2scc(C(=O)O)c2n1` (single isomer, unassigned) [Compound 495], the pIC50 in assay [1] was greater than 7.00; in assay [2] (Homo sapiens, COLO 205, 72 h) it was greater than 5.30.

As for `COC1CCN(C2(C)CCc3nc(C)n(CCOc4ccc(Cl)cc4-c4cc(C)nc5c(C(=O)O)csc45)c(=O)c3C2)CC1` (single isomer, unassigned) [Compound 496], the pIC50 in assay [1] is greater than 7.00; in assay [2] it was greater than 5.30.

Regarding `COC1CCN(C2(C)CCc3nc(C)n(CCOc4ccc(Cl)cc4-c4cc(C)nc5c(C(=O)O)csc45)c(=O)c3C2)CC1` (single isomer, unassigned) [Compound 497], the pIC50 in assay [1] was 6.30 to 7.00; in assay [2], less than 4.70.

Turning to `Cc1cc(-c2cc(Cl)ccc2OCCn2c(C)nc3c(c2=O)C[C@@H](N2C[C@@H]4CC[C@H]2CC4OC(F)(F)F)CC3)c2scc(C(=O)O)c2n1` (single isomer, unassigned) [Compound 498], the pIC50 in assay [1] is greater than 7.00; in assay [2] (Homo sapiens, COLO 205, 72 h) it was greater than 5.30.

For `Cc1cc(-c2cc(Cl)ccc2OCCn2c(C)nc3c(c2=O)C[C@H](N2C[C@H]4CC[C@@H]2CC4OC(F)(F)F)CC3)c2scc(C(=O)O)c2n1` (single isomer, unassigned) [Compound 499], the pIC50 is greater than 7.00 in assay [1] and greater than 5.30 in assay [2] (Homo sapiens, COLO 205, 72 h).

Regarding `Cc1cc(-c2cc(Cl)ccc2OCCn2c(C)nc3c(c2=O)CC(N2CCC(CC(F)(F)F)CC2)CC3(C)C)c2scc(C(=O)O)c2n1` (single isomer, unassigned) [Compound 500], the pIC50 in assay [1] was greater than 7.00; in assay [2], greater than 5.30.

For the molecule `Cc1cc(-c2cc(Cl)ccc2OCCn2c(C)nc3c(c2=O)C[C@H](N2C[C@@H]4CC[C@H]2CC4OC(F)(F)F)CC3)c2scc(C(=O)O)c2n1` (single isomer, unassigned) [Compound 501], the pIC50 in assay [1] is greater than 7.00; in assay [2] (Homo sapiens, COLO 205, 72 h), greater than 5.30.

Consider `Cc1cc(-c2cc(Cl)ccc2OCCn2c(C)nc3c(c2=O)C[C@@H](N2C[C@H]4CC[C@@H]2CC4OC(F)(F)F)CC3)c2scc(C(=O)O)c2n1` (single isomer, unassigned) [Compound 502], for which the pIC50 in assay [1] was greater than 7.00; in assay [2] (Homo sapiens, COLO 205, 72 h), greater than 5.30.

For the molecule `COC1(C(F)(F)F)CC2CCC(C1)N2[C@H]1CCc2nc(C)n(CCOc3ccc(Cl)cc3-c3cc(C)nc4c(C(=O)O)csc34)c(=O)c2C1` (single isomer, unassigned) [Compound 503], the pIC50 is 6.30 to 7.00 in assay [1] and 4.70 to 5.30 in assay [2] (Homo sapiens, COLO 205, 72 h).

Regarding `COC1(C(F)(F)F)CC2CCC(C1)N2[C@@H]1CCc2nc(C)n(CCOc3ccc(Cl)cc3-c3cc(C)nc4c(C(=O)O)csc34)c(=O)c2C1` (single isomer, unassigned) [Compound 504], the pIC50 was greater than 7.00 in assay [1] and greater than 5.30 in assay [2] (Homo sapiens, COLO 205, 72 h).

Regarding `Cc1cc(-c2cc(Cl)ccc2OCCn2c(C)nc3c(c2=O)CC(N2CCC4(CCN(CC(F)(F)F)C4)C2)CC3)c2scc(C(=O)O)c2n1` (single isomer, unassigned) [Compound 505], the pIC50 was greater than 7.00 in assay [1] and greater than 5.30 in assay [2] (Homo sapiens, COLO 205, 72 h).

As for `Cc1cc(-c2cc(Cl)ccc2OCCn2c(C)nc3c(c2=O)CC(N2CCC4(CCN(CC(F)(F)F)C4)C2)CC3)c2scc(C(=O)O)c2n1` (single isomer, unassigned) [Compound 506], the results for the pIC50 in assay [1] and in assay [2] were greater than 7.00 and greater than 5.30, respectively.

Consider `Cc1cc(-c2cc(Cl)ccc2OCCn2c(C)nc3c(c2=O)CC(N2CC4(CCCN(CC(F)(F)F)C4)C2)CC3)c2scc(C(=O)O)c2n1` (single isomer, unassigned) [Compound 507], for which the pIC50 in assay [1] is greater than 7.00; in assay [2] (Homo sapiens, COLO 205, 72 h) it was greater than 5.30.

For `Cc1cc(-c2cc(Cl)ccc2OCCn2c(C)nc3c(c2=O)CC(N2CC4(CCCN(CC(F)(F)F)C4)C2)CC3)c2scc(C(=O)O)c2n1` (single isomer, unassigned) [Compound 508], the pIC50 is greater than 7.00 in assay [1] and greater than 5.30 in assay [2].

Take `Cc1cc(-c2cc(Cl)ccc2OCCn2c(C)nc3c(c2=O)CC(N2CC4(CCCNC4)C2)CC3)c2scc(C(=O)O)c2n1` (single isomer, unassigned) [Compound 509]: the pIC50 is greater than 7.00 in assay [1] and less than 4.70 in assay [2] (Homo sapiens, COLO 205, 72 h).

With `Cc1cc(-c2cc(Cl)ccc2OCCn2c(C)nc3c(c2=O)CC(N2CC4(CCCNC4)C2)CC3)c2scc(C(=O)O)c2n1` (single isomer, unassigned) [Compound 510], the negative logarithm of the IC50 (pIC50) is greater than 7.00 in assay [1] and less than 4.70 in assay [2].

Turning to `Cc1cc(-c2cc(Cl)ccc2OCCn2c(C)nc3c(c2=O)CC(N2CCC4(CN(CC(F)(F)F)CC(F)(F)C4)C2)CC3)c2scc(C(=O)O)c2n1` (single isomer, unassigned) [Compound 511], the negative logarithm of the IC50 (pIC50) in assay [1] was greater than 7.00; in assay [2] (Homo sapiens, COLO 205, 72 h), greater than 5.30.
